In ChEMBL document CHEMBL1201862, “PubChem BioAssay data set” (2004):
The source made the active and inactive calls.

Key:
Estrogen receptor beta = Estrogen receptor beta (Homo sapiens, UniProt Q92731);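 also: recombinant ER-beta bound to coactivator SRC1 peptide in presence of estradiol agonist; inhibitors block coactivator peptide binding and lower the FRET signal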
[1] = Luminescence-based cell-based high throughput dose response assay to identify activators of the DAF-12 from the parasite S. stercoralis (ssDAF-12).; type: functional
[2] = biological target: T1, Oxysterols receptor LXR-beta (Homo sapiens, UniProt P55055); assay: LXR agonists, Gal4 luciferase reporter, dose response, counter-screen for ssDAF-12 agonist project, cell-based, luminescence, HEK293, S. stercoralis campaign (AID 720737); type: functional; conditions: read-out: IC50 (the source's name)
T1 sequence (P55055 whole entry): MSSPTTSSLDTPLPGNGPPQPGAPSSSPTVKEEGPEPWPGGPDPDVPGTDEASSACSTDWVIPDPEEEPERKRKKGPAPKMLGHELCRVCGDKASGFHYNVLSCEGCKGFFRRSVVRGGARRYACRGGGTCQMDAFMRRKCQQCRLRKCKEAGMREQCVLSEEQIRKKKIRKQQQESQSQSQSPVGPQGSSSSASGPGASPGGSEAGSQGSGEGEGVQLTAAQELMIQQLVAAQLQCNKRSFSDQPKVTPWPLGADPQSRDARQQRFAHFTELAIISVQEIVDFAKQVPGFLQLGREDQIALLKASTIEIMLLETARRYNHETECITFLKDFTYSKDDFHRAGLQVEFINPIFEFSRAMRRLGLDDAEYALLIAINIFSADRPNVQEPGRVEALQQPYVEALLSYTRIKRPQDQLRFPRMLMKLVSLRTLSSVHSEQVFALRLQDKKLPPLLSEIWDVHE

[3] = inhibitors of intracellular T. cruzi replication, confirmation, NIH3T3 host cells, beta-gal luminescence (AID 2044); type: functional, cell-based;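 also: intracellular parasites grown in NIH/3T3 mouse fibroblasts as host cells; luminescent beta-galactosidase reporter signal from transgenic T. cruzi replicating inside host cells; inhibitors lower the luminescence signal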
[4] = cytotoxicity toward NIH3T3 fibroblasts, dose response, counter-screen, cell-based, ATP luminescence, mouse fibroblasts (AID 2010); type: functional;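 also: cells exposed to compound for about 90 hours before reading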
[5] = biological target: FAD-linked sulfhydryl oxidase ALR (Homo sapiens, UniProt P55789); assay: inhibitors of human ALR sulfhydryl oxidase, dose response, biochemical, H2O2 detection, luminescence, cherry-pick (AID 493248)
Chain of FAD-linked sulfhydryl oxidase ALR (P55789 whole entry): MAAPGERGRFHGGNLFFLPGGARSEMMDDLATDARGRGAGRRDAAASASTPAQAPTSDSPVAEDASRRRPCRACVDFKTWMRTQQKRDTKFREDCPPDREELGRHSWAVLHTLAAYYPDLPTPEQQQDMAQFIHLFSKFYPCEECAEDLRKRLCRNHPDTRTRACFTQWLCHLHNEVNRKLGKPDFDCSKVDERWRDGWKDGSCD

[6] = biological target: T2, DNA repair protein RAD52 homolog (Homo sapiens, UniProt P43351); type: functional, biochemical
T2 sequence (P43351 whole entry): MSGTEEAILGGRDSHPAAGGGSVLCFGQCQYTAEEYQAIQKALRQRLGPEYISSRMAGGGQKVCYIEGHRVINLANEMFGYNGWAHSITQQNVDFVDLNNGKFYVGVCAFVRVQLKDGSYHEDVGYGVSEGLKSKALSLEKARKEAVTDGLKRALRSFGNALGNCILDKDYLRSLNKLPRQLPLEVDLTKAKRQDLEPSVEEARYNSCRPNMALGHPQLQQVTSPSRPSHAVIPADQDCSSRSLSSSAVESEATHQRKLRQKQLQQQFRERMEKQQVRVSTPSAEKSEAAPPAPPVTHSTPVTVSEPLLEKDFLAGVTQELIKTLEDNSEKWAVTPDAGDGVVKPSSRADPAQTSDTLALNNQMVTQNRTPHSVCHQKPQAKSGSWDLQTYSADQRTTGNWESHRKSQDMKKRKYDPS

[7] = THP-1 cell cytotoxicity, dose response, cytotoxicity control for Vif-APOBEC3G degradation inhibitor project, THP-1 cells (AID 1117359); type: functional; conditions: Human immunodeficiency virus 1, THP-1
[8] = biological target: T3, Glutathione-S-transferase (Schistosoma japonicum, UniProt Q26513); assay: biotin-GST/anti-GST TR-FRET signal inhibitors, dose response, artefact control for Vif-APOBEC3G degradation inhibitor project, biochemical (AID 1117362); type: functional
T3 sequence (Q26513 whole entry): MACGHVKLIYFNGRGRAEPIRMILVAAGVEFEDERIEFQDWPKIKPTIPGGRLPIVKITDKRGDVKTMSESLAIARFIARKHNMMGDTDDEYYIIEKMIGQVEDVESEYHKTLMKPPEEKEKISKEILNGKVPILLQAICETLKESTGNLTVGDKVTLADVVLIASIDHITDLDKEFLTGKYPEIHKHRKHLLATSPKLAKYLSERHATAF

Caspase-6 = biological target: T4, Caspase-6 (Homo sapiens, UniProt P55212); assay: human caspase-6 inhibitors, dose response, biochemical, VEID-R110 fluorescence, cherry-pick (AID 720632)
T4 sequence (P55212 whole entry): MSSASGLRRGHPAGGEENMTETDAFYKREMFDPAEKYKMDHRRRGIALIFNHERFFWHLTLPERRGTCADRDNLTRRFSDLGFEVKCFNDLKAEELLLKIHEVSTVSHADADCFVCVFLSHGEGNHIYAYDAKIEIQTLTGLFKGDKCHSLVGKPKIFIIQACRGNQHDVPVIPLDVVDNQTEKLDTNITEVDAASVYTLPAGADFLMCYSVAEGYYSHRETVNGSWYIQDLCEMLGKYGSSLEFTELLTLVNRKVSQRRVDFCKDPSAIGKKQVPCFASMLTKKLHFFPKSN

[9] = biological target: T5, Histone-lysine N-methyltransferase NSD2 (Homo sapiens, UniProt O96028); type: biochemical
T5 sequence (O96028 whole entry): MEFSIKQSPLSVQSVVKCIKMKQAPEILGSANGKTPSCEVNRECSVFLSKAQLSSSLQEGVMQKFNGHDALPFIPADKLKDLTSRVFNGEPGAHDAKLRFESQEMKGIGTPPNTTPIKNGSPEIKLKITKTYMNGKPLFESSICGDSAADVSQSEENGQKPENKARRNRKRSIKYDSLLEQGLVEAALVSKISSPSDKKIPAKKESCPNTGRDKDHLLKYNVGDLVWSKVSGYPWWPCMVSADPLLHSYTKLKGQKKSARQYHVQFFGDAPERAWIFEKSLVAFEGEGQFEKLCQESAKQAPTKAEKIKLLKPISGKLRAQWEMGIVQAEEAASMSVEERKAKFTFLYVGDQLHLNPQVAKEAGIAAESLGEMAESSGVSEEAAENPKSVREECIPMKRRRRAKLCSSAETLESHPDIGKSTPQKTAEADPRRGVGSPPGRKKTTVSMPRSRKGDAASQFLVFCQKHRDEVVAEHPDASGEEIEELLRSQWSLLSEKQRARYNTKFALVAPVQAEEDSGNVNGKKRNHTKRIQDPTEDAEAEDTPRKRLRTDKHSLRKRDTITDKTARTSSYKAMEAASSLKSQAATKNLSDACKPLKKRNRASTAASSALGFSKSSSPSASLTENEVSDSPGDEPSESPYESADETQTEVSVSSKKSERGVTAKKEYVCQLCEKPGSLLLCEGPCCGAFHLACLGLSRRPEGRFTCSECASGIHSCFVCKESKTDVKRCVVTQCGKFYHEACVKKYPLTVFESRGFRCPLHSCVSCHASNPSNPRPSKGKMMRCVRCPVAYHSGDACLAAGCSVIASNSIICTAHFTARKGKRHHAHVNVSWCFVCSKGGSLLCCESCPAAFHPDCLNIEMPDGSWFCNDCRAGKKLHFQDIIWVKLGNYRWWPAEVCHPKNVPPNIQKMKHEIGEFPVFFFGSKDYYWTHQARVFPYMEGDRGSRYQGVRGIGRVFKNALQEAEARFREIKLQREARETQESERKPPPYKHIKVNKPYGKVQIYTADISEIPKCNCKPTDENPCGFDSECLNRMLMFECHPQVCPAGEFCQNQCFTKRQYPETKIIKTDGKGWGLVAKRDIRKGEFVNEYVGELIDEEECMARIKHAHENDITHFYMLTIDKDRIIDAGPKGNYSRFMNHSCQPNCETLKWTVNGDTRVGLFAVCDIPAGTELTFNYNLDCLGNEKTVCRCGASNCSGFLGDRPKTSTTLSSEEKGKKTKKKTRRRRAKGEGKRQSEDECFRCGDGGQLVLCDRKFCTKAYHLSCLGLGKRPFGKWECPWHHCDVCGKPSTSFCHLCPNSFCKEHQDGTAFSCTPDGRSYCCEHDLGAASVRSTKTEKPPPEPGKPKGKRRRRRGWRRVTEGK

Chain of Estrogen receptor beta (Q92731 whole entry): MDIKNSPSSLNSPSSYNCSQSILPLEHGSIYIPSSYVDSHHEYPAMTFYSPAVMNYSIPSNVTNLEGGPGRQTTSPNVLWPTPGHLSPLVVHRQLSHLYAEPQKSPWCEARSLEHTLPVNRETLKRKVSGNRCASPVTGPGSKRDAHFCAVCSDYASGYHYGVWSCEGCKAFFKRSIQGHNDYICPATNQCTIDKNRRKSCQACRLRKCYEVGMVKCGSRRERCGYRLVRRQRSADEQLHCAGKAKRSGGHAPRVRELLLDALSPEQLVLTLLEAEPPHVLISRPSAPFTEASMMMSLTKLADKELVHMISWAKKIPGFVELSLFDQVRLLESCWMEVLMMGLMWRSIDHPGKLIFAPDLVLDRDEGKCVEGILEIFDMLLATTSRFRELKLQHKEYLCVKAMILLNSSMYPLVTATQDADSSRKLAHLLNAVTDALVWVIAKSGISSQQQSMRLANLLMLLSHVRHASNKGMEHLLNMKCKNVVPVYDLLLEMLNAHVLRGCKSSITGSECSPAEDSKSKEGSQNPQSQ

CCSc1nnc(Cc2cc(=O)[nH]c(=O)[nH]2)n1-c1cc(C)ccc1C
IC50 (Estrogen receptor beta): > 50 µM (not active)

C=CCn1c(COc2ccc(OC)cc2)nnc1SCn1nnc2ccccc2c1=O
IC50 [1]: > 67.6 µM (inactive) | EC50 [2]: > 67.6 µM (inactive)

CC1(C)CC(Nc2ccc(Nc3ccccc3)cc2)CC(C)(C)N1
EC50 [3]: 4.14 µM (active) | EC50 [4]: > 60 µM (not active) | AC50 [5]: 0.27 µM (active) | AC50 [6]: 13.9 µM (active) | CC50 [7]: > 40 µM (active) | IC50 [8]: 64.5 µM (active)

Cc1cc(/C=C\c2nc(O)c([N+](=O)[O-])c(O)n2)c(C)n1-c1ccccc1
AC50 (Caspase-6): 19.2 µM (active) | AC50 [9]: > 20 µM (inactive)
